According to US20220267390A1, “MPS MODIFIED PEPTIDES AND USE THEREOF” (The Regents of the University of California, priority 2019, published 2022):
Where no end group is shown, it is not given here.

Columns and labels:
[1] = Kinetic assay: biolayer interferometry binding to biotin-labeled PIP2; details: 24° C., read-out: dissociation constant
Source text: (§1) FIGS. 10A-10C: (FIG. 10A) The PIP2-binding motif (SEQ ID NO: 12) on the ? hosphorylation ? ite ? omain (PSD) of MARCKS. FIG. 10A discloses the MH domain as SEQ ID NO: 86). (FIG. 10B) Biolayer interferometry analysis of the binding of the MPS peptide to biotin-labeled PIP2. (FIG. 10C) PIP3 levels in IPF fibroblast cells with PBS or MPS treatment. * p<0.05 versus PBS (n=3).
Real-time binding of the peptide mimicking the phosphorylation site domain of MARCKS (MPS peptide, amino acids 151 to 175 from the wild-type MARCKS protein) to biotin-labeled PIP2 was evaluated using biolayer interferometry (BLI) on an Octet RED96 system (ForteBio) following the manufacturer's instructions. Briefly, the ligand, PIP2 labeled with biotin at the sn-1 position (1000 nM in ddH2O), was immobilized on Super Streptavidin (SSA) biosensors for 10 minutes. A binding assay was performed with the MPS analyte at various concentrations from 0 to 1000 nM in ddH2O. Association and dissociation were monitored for 5 minutes. Assays were performed at 24° C. Data were analyzed using Octet Data Analysis Software 7.0 (ForteBio).

PIP3 [2] = experiment: Immunocytochemistry with anti-PIP3 antibodies in IPF lung fibroblast cells; type: cell-based, human; details: 100 μM, 12 hours
Procedure: Multiple IPF lung fibroblast cells were treated with either PBS or 100 μM of MPS peptide for 12 hours and then subjected to immunocytochemistry using anti-PIP3 antibodies. Representative images are shown (n=3). Scale bar: 20 μm.
MARCKS levels and activity (phospho-MARCKS) were correlated with higher pro-fibrotic activity including cell proliferation, extracellular matrix production, invasiveness, and fibroblast differentiation. Upon treatment with MPS peptides, which target MARCKS activity, Applicant observes attentuation of these activities. The second significant finding was that MARCKS mediates these profibrotic effects through through the PI3K/AKT pathway. […] Targeting of these activities with MPS peptide results in decreased AKT activity and downstream pro-fibrotic signals. The mechanism through which this occurs is through regulation of PIP2 availability at the cell membrane. In an unphosprylated state, MARCKS is able to bind PIP2 at the cell membrane, preventing PI3K proteins from converting PIP2 into PIP3 and effecting downstream AKT activity. Upon phosphorylation, MARCKS is released from the cell membrane into the cytosol, freeing up PIP2 and allowing PI3K to convert PIP2 into PIP3. […] Applicant obtained multiple IPF lung fibroblast cells and treated them with either PBS or 100 μM MPS peptide for 12 hours and subjected to immunocytochemistry utilizing anti-PIP3 antibody.

PIP3 [3] = experiment: PI(3,4,5)P3 quantitation (PIP3 Mass ELISA) in IPF fibroblasts; type: cell-based, human; details: MPS-treated IPF fibroblasts vs PBS
Source text: as §1
Cells were harvested and precipitated by trichloroacetic acid. PIP3 lipids were extracted twice from the trichloroacetic acid precipitated fraction by methanol: chloroform (2:1). After acidification, organic-phase lipids were used for PIP3 quantitation, based on the protocol for the PIP3 Mass ELISA kit (Echelon Biosciences, Salt Lake, Utah). Briefly, the lipid extract from cultured cells was mixed with the PIP3-specific detector protein, which was then incubated in a PIP3-coated microplate for competitive binding. After several washes, the microplate was then incubated with a HRP-linked secondary detector and tetramethylbenzidine substrate for color development. To stop further color development, 2M H2SO4 solution was then added. Microplates were read at an absorbance wavelength of 450 nm. A series of different dilutions of PIP3 standards were used for establishing a standard curve for each reaction. Cellular PIP3 amounts could be estimated by comparing the absorbance in the wells with the values in the standard curve. […]

[4] = tested on: lung fibroblasts isolated from bleomycin-treated mice; experiment: MTT cell viability of lung fibroblasts from saline- or bleomycin-treated mice; type: cell-based; details: fibroblasts from bleomycin-treated mice compared to those from saline-treated mice
Procedure: (§2) FIGS. 7A-7B: (FIG. 7A) Western blots analysis of phospho-MARCKS, phospho-AKT and α-SMA expression in lung fibroblast cells isolated from saline- or bleomycin-treated mice after 48 hours of treatment with control or MPS peptides (100 μM). (FIG. 7B) Effect of MPS peptide on cell viability of lung fibroblasts isolated from saline- (mFb-Saline) or bleomycin-treated (mFb-Bleomycin) mice (n=4; *, p<0.05).
MPS peptide potentially serves as an antifibrotic agent in bleomycin-induced pulmonary fibrosis. Bleomycin remains the standard agent for induction of experimental pulmonary fibrosis in animals^23. Thus, 8-week-old female C57BL/6J mice received saline or bleomycin intratracheally (33 μg in […] of saline) as previously described^23. Lung specimens from bleomycin- or saline-treated mice were collected and subjected to immunofluorescence staining. […] Next, lung fibroblast cells isolated from saline- or bleomycin-treated mice (two mice fibroblast cell lines were gifts from Dr. Sem H. Phan, University of Michigan School of Medicine, MI) were incubated with either 100 μM control or MPS peptide for 48 hours. […] The feasibility of the MPS peptide as an antifibrotic agent in a bleomycin-induced pulmonary fibrosis was tested. […] Saline- and bleomycin-exposed mice then were treated with either PBS or MPS peptide (28 mg/kg) intraperitoneally every other day. […]

[5] = tested on: phospho-MARCKS, phospho-AKT and α-SMA; experiment: Western blot in lung fibroblast cells isolated from bleomycin-treated mice; type: cell-based; details: 100 μM, 48 hours, fibroblasts from bleomycin-treated mice
Procedure: as §2
MPS peptide potentially serves as an antifibrotic agent in bleomycin-induced pulmonary fibrosis. Bleomycin remains the standard agent for induction of experimental pulmonary fibrosis in animals^23. Thus, 8-week-old female C57BL/6J mice received saline or bleomycin intratracheally (33 μg in […] of saline) as previously described^23. Lung specimens from bleomycin- or saline-treated mice were collected and subjected to immunofluorescence staining. […] Next, lung fibroblast cells isolated from saline- or bleomycin-treated mice (two mice fibroblast cell lines were gifts from Dr. Sem H. Phan, University of Michigan School of Medicine, MI) were incubated with either 100 μM control or MPS peptide for 48 hours. […] The feasibility of the MPS peptide as an antifibrotic agent in a bleomycin-induced pulmonary fibrosis was tested. […] Saline- and bleomycin-exposed mice then were treated with either PBS or MPS peptide (28 mg/kg) intraperitoneally every other day. To ascertain the therapeutic effect of MPS peptide on pulmonary fibrosis, MPS was administered intraperitoneally during the “fibrotic” phase of the model. […]
Western blot analyses and the preparations of whole-cell lysates have been previously described^14, 16, 27 For whole cell lysates, cells were lysed in a lysis buffer (50 mM Tris-HCl (pH 7.4), 1% Triton X-100, 10% glycerol, 150 mM NaCl, 1 mM EDTA, 20 μg/ml leupeptin, 1 mM PMSF and 20 μg/ml aprotinin) and separated by SDS-PAGE. […] The cells were mounted onto slides and visualized using fluorescence microscopy (model Axiovert 100; Carl Zeiss, Oberkochen, Germany) or a Zeiss LSM510 laser-scanning confocal microscope image system.

Kd [1]: 0.0176 µM
Sequence: KKKKKRFSFKKSFKLSGFSFKKNKK [MPS peptide]
PIP3 levels (PIP3 [2]): reduced
PIP3 pools in whole cell lysates (PIP3 [3]): decrease
Cell viability [4]: very effective in decreasing cell viability
phospho-AKT expression [5]: decrease
phospho-MARCKS expression [5]: decrease
α-SMA expression [5]: decrease
